From patent publication US20220211704A1, “INHIBITORS OF HUMAN IMMUNODEFICIENCY VIRUS REPLICATION” (VIIV HEALTHCARE UK (No. 5) LIMITED, priority 2019, published 2022)

Experiments:
[1] = Compound cytotoxicity, XTT-based colorimetric assay; assay type: cell-based; conditions: human; uninfected MT2 cells, day 4, XTT
Experimental: Compound cytotoxicity and the corresponding CC50 values were determined using the same protocol as described in the antiviral assay except that uninfected cells were used. Cytotoxicity was assessed on day 4 in uninfected MT2 cells by using an XTT (2,3-bis[2-Methoxy-4-nitro-5-sulfophenyl]-2H-tetrazolium-5-carboxyanilide inner salt)-based colorimetric assay (Sigma-Aldrich, St Louis, Mo.).

recombinant NL4-3 virus = assay: HIV cell culture assay (Renilla luciferase reporter virus in MT-2 cells); assay type: cell-based; conditions: Human immunodeficiency virus 1, NL43, MT2
Experimental: HIV cell culture assay—MT-2 cells, 293T cells and the proviral DNA clone of NL4-3 virus were obtained from the NIH AIDS Research and Reference Reagent Program. MT-2 cells were propagated in RPMI 1640 media supplemented with 10% heat inactivated fetal bovine serum (FBS), […]. The 293T cells were propagated in DMEM media supplemented with 10% heat inactivated FBS, […]. A recombinant NL4-3 proviral clone, in which a section of the nef gene was replaced with the Renilla luciferase gene, was used to make the reference virus used in these studies. The recombinant virus was prepared through transfection of the recombinant NL4-3 proviral clone into 293T cells using Transit-293 Transfection Reagent from Mirus Bio LLC (Madison, Wis.). Supernatent was harvested after 2-3 days and the amount of virus present was titered in MT-2 cells using luciferase enzyme activity as a marker by measuring luciferase enzyme activity. Luciferase was quantitated using the EnduRen Live Cell Substrate from Promega (Madison, Wis.). Antiviral activities of compounds toward the recombinant virus were quantified by measuring luciferase activity in MT-2 cells infected for 4-5 days with the recombinant virus in the presence of serial dilutions of the compound. […]

SMILES | CC50 at 4 day [1] [nM] | EC50 (recombinant NL4-3 virus) [nM]
CC(C)(C#Cc1ccc2c(=O)n(-c3ccc(Cl)c4c(NS(=O)(=O)C5CC5)nn(CC(F)F)c34)c([C@H](Cc3cc(F)cc(F)c3)NC(=O)Cn3nc(C(F)F)c4c3C(F)(F)C3CC43)nc2c1)S(C)(=O)=O (stereo in doubt) [Example 2, N—((S)-1-(3-(4-chloro-3-(cyclopropanesulfonamido)-1-(2,2-difluoroethyl)-1H-indazol-7-yl)-7-(3-methyl-3-(methylsulfonyl)but-1-yn-1-yl)-4-oxo-3,4-dihydroquinazolin-2-yl)-2-(3,5-difluorophenyl)ethyl)-2-((3bS,4aR)-3-(difluoromethyl)-5,5-difluoro-3b,4,4a,5-tetrahydro-1H-cyclopropa[3,4]cyclopenta[1,2-c]pyrazol-1-yl)acetamide] | > 500 | 0.047
Cn1nc(NS(C)(=O)=O)c2c(Cl)ccc(-n3c([C@H](Cc4cc(F)cc(F)c4)NC(=O)Cn4nc(C(F)F)c5c4C(F)(F)C4CC54)nc4cc(C#CC(C)(C)S(C)(=O)=O)ccc4c3=O)c21 (stereo in doubt) [Example 1, N—((S)-1-(3-(4-chloro-1-methyl-3-(methylsulfonamido)-1H-indazol-7-yl)-7-(3-methyl-3-(methylsulfonyl)but-1-yn-1-yl)-4-oxo-3,4-dihydroquinazolin-2-yl)-2-(3,5-difluorophenyl)ethyl)-2-((3bS,4aR)-3-(difluoromethyl)-5,5-difluoro-3b,4,4a,5-tetrahydro-1H-cyclopropa[3,4]cyclopenta[1,2-c]pyrazol-1-yl)acetamide] | > 500 | 0.035
